In the supplement of paper PMC10307832:

What was measured:
Assay in all cases: relative viability (nuclei count vs DMSO), 5 days (fraction); higher = more cells survive
BX 795 + Palbociclib = compound: O=C(NCCCNc1nc(Nc2cccc(NC(=O)N3CCCC3)c2)ncc1I)c1cccs1 [BX 795] + CC(=O)c1c(C)c2cnc(Nc3ccc(N4CCNCC4)cn3)nc2n(C2CCCC2)c1=O [Palbociclib] (partner 0.5 µM)
Method in brief: (§1)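 Relative viability divides the nuclei count in treated wells by that in vehicle wells. Lung cancer cell lines were seeded in 1536-well plates, dosed by pin tool the next day, and fixed and stained after 5 days in one step with final 0.05% Triton X-100, 1% formaldehyde and 1 ug/ml Hoechst. Dosing was a single drug or a fixed anchor-drug dose plus five library-drug doses (not always all listed) in √10 steps, and values are medians of duplicate plates imaged at 4×.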

BX 795 + Bortezomib = compound: O=C(NCCCNc1nc(Nc2cccc(NC(=O)N3CCCC3)c2)ncc1I)c1cccs1 [BX 795] + CC(C)C[C@H](NC(=O)[C@H](Cc1ccccc1)NC(=O)c1cnccn1)B(O)O [Bortezomib] (partner 0.002 µM)
Method in brief: as §1

BX 795 + Pictilisib = compound: O=C(NCCCNc1nc(Nc2cccc(NC(=O)N3CCCC3)c2)ncc1I)c1cccs1 [BX 795] + CS(=O)(=O)N1CCN(Cc2cc3nc(-c4cccc5[nH]ncc45)nc(N4CCOCC4)c3s2)CC1 [Pictilisib] (partner 1 µM)
Method in brief: as §1

BX 795 + Pemetrexed = compound: O=C(NCCCNc1nc(Nc2cccc(NC(=O)N3CCCC3)c2)ncc1I)c1cccs1 [BX 795] + Nc1nc2[nH]cc(CCc3ccc(C(=O)N[C@@H](CCC(=O)O)C(=O)O)cc3)c2c(=O)[nH]1 [Pemetrexed] (partner 0.2 µM)
Method in brief: as §1

BX 795 + Olaparib = compound: O=C(NCCCNc1nc(Nc2cccc(NC(=O)N3CCCC3)c2)ncc1I)c1cccs1 [BX 795] + O=C(c1cc(Cc2n[nH]c(=O)c3ccccc23)ccc1F)N1CCN(C(=O)C2CC2)CC1 [Olaparib] (partner 8 µM)
Method in brief: as §1

Row | Cell Line | relative viability (BX 795 + Palbociclib; first compound 0.04 µM) | relative viability (BX 795 + Palbociclib; first compound 0.1265 µM) | relative viability (BX 795 + Palbociclib; first compound 0.4 µM) | relative viability (BX 795 + Palbociclib; first compound 1.265 µM) | relative viability (BX 795 + Bortezomib; first compound 0.04 µM) | relative viability (BX 795 + Bortezomib; first compound 0.1265 µM) | relative viability (BX 795 + Bortezomib; first compound 0.4 µM) | relative viability (BX 795 + Bortezomib; first compound 1.265 µM) | relative viability (BX 795 + Pictilisib; first compound 0.04 µM) | relative viability (BX 795 + Pictilisib; first compound 0.1265 µM) | relative viability (BX 795 + Pictilisib; first compound 0.4 µM) | relative viability (BX 795 + Pictilisib; first compound 1.265 µM) | relative viability (BX 795 + Pemetrexed; first compound 0.04 µM) | relative viability (BX 795 + Pemetrexed; first compound 0.1265 µM) | relative viability (BX 795 + Pemetrexed; first compound 0.4 µM) | relative viability (BX 795 + Pemetrexed; first compound 1.265 µM) | relative viability (BX 795 + Olaparib; first compound 0.04 µM) | relative viability (BX 795 + Olaparib; first compound 0.1265 µM) | relative viability (BX 795 + Olaparib; first compound 0.4 µM) | relative viability (BX 795 + Olaparib; first compound 1.265 µM)
1 | LCLC-103H | 0.441 | 0.511 | 0.529 | 0.445 | 1 | 1.1 | 1.15 | 0.911 | 0.577 | 0.674 | 0.596 | 0.643 | 0.432 | 0.429 | 0.407 | 0.452 | 0.794 | 0.73 | 0.761 | 0.763
2 | LOU-NH91 | 0.5 | 0.478 | 0.558 | 0.5 | 0.528 | 0.498 | 0.562 | 0.507 | 0.509 | 0.507 | 0.541 | 0.5 | 0.321 | 0.38 | 0.294 | 0.377 | 0.9 | 0.918 | 0.754 | 0.902
3 | LU99A | 0.434 | 0.406 | 0.36 | 0.277 | 1.23 | 1.02 | 0.8 | 0.773 | 0.384 | 0.317 | 0.329 | 0.252 | 0.148 | 0.197 | 0.128 | 0.209 | 0.211 | 0.264 | 0.17 | 0.222
4 | LXF-289 | 0.671 | 0.595 | 0.638 | 0.579 | 0.981 | 1 | 0.977 | 0.967 | 0.844 | 0.77 | 0.879 | 0.649 | 0.898 | 0.832 | 0.894 | 0.831 | 1.06 | 1.04 | 1.2 | 0.81
5 | NCI-H23 | 0.457 | 0.43 | 0.567 | 0.464 | 1.05 | 1.31 | 0.987 | 1.26 | 0.515 | 0.504 | 0.41 | 0.391 | 0.559 | 0.61 | 0.418 | 0.502 | 0.335 | 0.308 | 0.247 | 0.225
6 | NCI-H322M | 0.486 | 0.468 | 0.571 | 0.587 | 1.39 | 1.26 | 1.44 | 1.39 | 0.627 | 0.521 | 0.537 | 0.527 | 0.591 | 0.606 | 0.603 | 0.672 | 0.978 | 0.821 | 0.577 | 0.885
7 | NCI-H441 | 0.22 | 0.204 | 0.243 | 0.184 | 0.393 | 0.541 | 0.747 | 0.577 | 0.609 | 0.503 | 0.666 | 0.37 | 0.255 | 0.272 | 0.281 | 0.267 | 0.665 | 0.623 | 0.497 | 0.413
8 | NCI-H460 | 0.163 | 0.156 | 0.0784 | 0.149 | 1.1 | 1.27 | 1.08 | 1.09 | 0.361 | 0.418 | 0.374 | 0.261 | 0.0535 | 0.0622 | 0.0597 | 0.0576 | 0.371 | 0.427 | 0.154 | 0.346
9 | NCI-H520 | 0.189 | 0.263 | 0.187 | 0.177 | 0.355 | 0.36 | 0.356 | 0.308 | 0.303 | 0.321 | 0.279 | 0.28 | 0.393 | 0.7 | 0.341 | 0.335 | 0.334 | 0.357 | 0.307 | 0.22
10 | NCI-H647 | 0.425 | 0.365 | 0.384 | 0.3 | 0.913 | 1.11 | 0.801 | 0.3 | – | 0.363 | 0.438 | 0.343 | 0.163 | 0.186 | 0.106 | 0.106 | 0.406 | 0.565 | 0.288 | 0.232
11 | NCI-H650 | 0.346 | 0.343 | 0.319 | 0.312 | 0.792 | 0.761 | 1.06 | 0.432 | 0.86 | 0.979 | 0.762 | 0.623 | 0.889 | 1.04 | 0.866 | 0.809 | 0.451 | 0.367 | 0.412 | 0.259
12 | NCI-H661 | 0.463 | 0.429 | 0.429 | 0.444 | 0.767 | 0.806 | 0.695 | 0.706 | 0.461 | 0.484 | 0.39 | 0.441 | 0.855 | 0.98 | 0.521 | 0.784 | 0.742 | 0.826 | 0.662 | 0.583
13 | NCI-H838 | 0.231 | 0.234 | 0.197 | 0.172 | 0.841 | 0.792 | 0.719 | 0.401 | 0.449 | 0.425 | 0.382 | 0.326 | 0.254 | 0.249 | 0.189 | 0.184 | 0.853 | 0.757 | 0.643 | 0.248
14 | NCI-H1355 | 0.418 | 0.346 | 0.388 | 0.393 | 1.23 | 1.22 | 1.31 | 1.22 | 0.451 | 0.423 | 0.436 | 0.424 | 0.798 | 0.977 | 1.09 | 1.01 | 0.827 | 0.663 | 0.806 | 0.571
15 | NCI-H1437 | 0.336 | 0.34 | 0.344 | 0.358 | 0.543 | 0.493 | 0.533 | 0.415 | 0.488 | 0.411 | 0.417 | 0.55 | 0.277 | 0.305 | 0.257 | 0.321 | 0.632 | 0.664 | 0.651 | 0.483
